Source: patent publication US8912120B2, “Herbicidal compositions comprising 4-amino-3-chloro-5-fluoro-6-(4-chloro-2-fluoro-3-methoxyphenyl) pyridine-2-carboxylic acid or a derivative thereof and synthetic auxin herbicides” (Dow AgroSciences, LLC., priority 2012, dated 2014)

Experiments:
LEFCH [1] = assay: Example II: in-water applied herbicidal mixtures, transplanted paddy rice, LEFCH; assay type: in vivo, Leptochloa chinensis (Chinese sprangletop); details: for Visual Weed Control (%) Obs: 25 DAA
Procedure, shortened: (§1)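 Rice transplanted (2nd–3rd leaf) into non-perforated mud pots 4 d pre-application; Osmocote 19:6:12 fertiliser. In-water application: pipette injection into aqueous layer, components individually/sequentially. Solvent blank controls; acetone and crop oil concentrate equalised.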

PANDI = assay: Example III: postemergence foliar-applied herbicidal mixtures, row crop weeds, PANDI; assay type: in vivo, Panicum dichotomiflorum (fall panicum); details: 16 DAA; 3.75 gae/ha
Experimental: The plants were grown for 7-31 days (d) in a greenhouse with an approximate 15 hour (h) photoperiod which was maintained at about 23-29° C. during the day and 22-28° C. during the night.

SCPMA = assay: Example II: in-water applied herbicidal mixtures, transplanted paddy rice, SCPMA; assay type: in vivo; details: for Visual Weed Control (%) - 20 DAA SCPMA Obs: in-water application
Procedure, shortened: as §1

IPOHE = assay: Example I: postemergence foliar-applied herbicidal mixtures, direct seeded rice, IPOHE; assay type: in vivo, Ipomoea hederacea (ivyleaf morningglory)
Experimental: (§2) The soil matrix was contained in plastic pots with a volume of 1 quart and a surface area of 83.6 square centimeters (cm^2). […] The plants were grown for 8-22 days in a greenhouse with an approximate 14 h photoperiod which was maintained at about 29° C. during the day and 26° C. during the night. Nutrients (Peters Excel® 15-5-15 5-Ca 2-Mg and iron chelate) were applied in the irrigation solution as needed and water was added on a regular basis. Supplemental lighting was provided with overhead metal halide 1000-Watt lamps as necessary. The plants were employed for testing when they reached the first through fourth true leaf stage.
(§3) Treatments consisted of the acid or esters of 4-amino-3-chloro-5-fluoro-6-(4-chloro-2-fluoro-3-methoxy-phenyl)pyridine-2-carboxylic acid (Compound A), each formulated as an SC (suspension concentrate), and various herbicidal components alone and in combination. Forms of compound A were applied on an acid equivalent basis.
(§4) For treatments comprised of formulated compounds, measured amounts of compounds were placed individually in 25 mL glass vials and diluted in a volume of 1.25% (v/v) Agri-Dex® crop oil concentrated to obtain 12× stock solutions. […] Application solutions were prepared by adding an appropriate amount of each stock solution (e.g., 1 mL) and diluted to the appropriate final concentrations with the addition of 10 mL of an aqueous mixture of 1.25% (v/v) crop oil concentrate so that the final spray solutions contained 1.25+/−0.05% (v/v) crop oil concentrate.
(§5) All stock solutions and applications solutions were visually inspected for compound compatibility prior to application. Spray solutions were applied to the plant material with an overhead Mandel track sprayer equipped with a 8002E nozzles calibrated to deliver 187 L/ha over an application area of 0.503 m^2 at a spray height of 18 to 20 inches (46 to 50 cm) above average plant canopy height. Control plants were sprayed in the same manner with the solvent blank.
(§6) The treated plants and control plants were placed in a greenhouse as described above and watered by sub-irrigation to prevent wash-off of the test compounds. After approximately 3 weeks, the condition of the test plants as compared with that of the untreated plants was determined visually and scored on a scale of 0 to 100 percent where 0 corresponds to no injury or growth inhibition and 100 corresponds to complete kill.
(§7) Colby's equation was used to determine the herbicidal effects expected from the mixtures (Colby, S. R. 1967. Calculation of the synergistic and antagonistic response of herbicide combinations. Weeds 15:20-22).
(§8) The following equation was used to calculate the expected activity of mixtures containing two active ingredients, A and B: Expected=A+B−(A×B/100)
(§9) A=observed efficacy of active ingredient A at the same concentration as used in the mixture.
(§10) B=observed efficacy of active ingredient B at the same concentration as used in the mixture.

ECHCG [2] = assay: Example I: postemergence foliar-applied herbicidal mixtures, direct seeded rice, ECHCG
Experimental: as §2, §3, §4, §5, §6, §7, §8, §9, §10

ECHCG [3] = assay: Example II: in-water applied herbicidal mixtures, transplanted paddy rice, ECHCG; assay type: in vivo, Echinochloa crus-galli (barnyardgrass); details: for Visual Weed Control (%) - 21 DAA ECHCG Obs / Visual Weed Control (%) - 22 DAA ECHCG Obs: in-water application
Procedure, shortened: as §1

DIGSA = assay: Example I: postemergence foliar-applied herbicidal mixtures, direct seeded rice, DIGSA; details: 21.2 gae/ha
Experimental: as §2, §3, §4, §5, §6, §7, §8, §9, §10

CYPIR = assay: Example I: postemergence foliar-applied herbicidal mixtures, direct seeded rice, CYPIR; assay type: in vivo, Cyperus iria (rice flatsedge); details: 5.3 gae/ha
LEFCH [4] = assay: Example I: postemergence foliar-applied herbicidal mixtures, direct seeded rice, LEFCH; assay type: in vivo, Leptochloa chinensis (Chinese sprangletop)
Experimental: as §2, §3, §4, §5, §6, §7, §8, §9, §10

[5] = 35 gae/ha, in-water application

Structure (SMILES): COc1c(Cl)ccc(-c2nc(C(=O)O)c(Cl)c(N)c2F)c1F [Compound A Acid, 4-amino-3-chloro-6-(4-chloro-2-fluoro-3-methoxyphenyl)-5-fluoropyridine-2-carboxylic acid]
- Visual Weed Control (%) Obs (LEFCH [1]; 8.75 gae/ha): 50%
- Visual Weed Control (%) Obs (LEFCH [1]; 17.5 gae/ha): 50%
- Visual Weed Control (%) Obs (LEFCH [1]; 35 gae/ha): 85%
- Visual Weed Control (%) - 21 DAA LEFCH Obs (LEFCH [1]; [5]): 30%
- Visual Weed Control (%) - 25 DAA LEFCH Obs (LEFCH [1]; [5]): 85%
- Visual Weed Control (%) - 19 DAA LEFCH Obs (LEFCH [1]; 42.4 gae/ha, in-water application): 10%
- Visual Weed Control (%) Obs (PANDI): 60%
- Visual Weed Control (%) - 20 DAA SCPMA Obs (SCPMA; 8.75 gae/ha): 0%
- Visual Weed Control (%) - 20 DAA SCPMA Obs (SCPMA; 17.5 gae/ha): 0%
- Visual Weed Control (%) Obs (SCPMA; 20 DAA, 42.4 gae/ha): 0%
- Visual Weed Control (%) Obs (SCPMA; 20 DAA, 84.8 gae/ha): 0%
- Visual Weed Control (%) Obs (SCPMA; 21 DAA, 42.4 gae/ha): 0%
- Visual Weed Control (%) Obs (SCPMA; 22 DAA, 8.75 gae/ha): 0%
- Visual Weed Control (%) Obs (SCPMA; 22 DAA, 16 gae/ha): 0%
- Visual Weed Control (%) Obs (SCPMA; 22 DAA, 17.5 gae/ha): 0%
- Visual Weed Control (%) Obs (SCPMA; 22 DAA, 32 gae/ha): 0%
- Visual Weed Control (%) Obs (SCPMA; 22 DAA, 35 gae/ha): 0%
- Visual Weed Control (%) Obs (SCPMA; 22 DAA, 64 gae/ha): 30%
- Visual Weed Control (%) - 20 DAA SCPMA Obs (SCPMA; 35 gae/ha): 0%
- Visual Weed Control (%) - 20 DAA IPOHE Obs (IPOHE; 4.38 gae/ha): 10%
- Visual Weed Control (%) - 20 DAA IPOHE Obs (IPOHE; 8.75 gae/ha): 15%
- Visual Weed Control (%) - 20 DAA IPOHE Obs (IPOHE; 17.5 gae/ha): 30%
- Visual Weed Control (%) - 21 DAA ECHCG Obs (ECHCG [2]; 4.38 gae/ha): 15%
- Visual Weed Control (%) - 21 DAA ECHCG Obs (ECHCG [2]; 8.75 gae/ha): 50%
- Visual Weed Control (%) - 19 DAA ECHCG Obs (ECHCG [2]; 19.4 gae/ha): 80%
- Visual Weed Control (%) - 21 DAA ECHCG Obs (ECHCG [3]; 8.75 gae/ha): 0%
- Visual Weed Control (%) - 22 DAA ECHCG Obs (ECHCG [3]; 8.75 gae/ha): 0%
- Visual Weed Control (%) - 21 DAA ECHCG Obs (ECHCG [3]; 17.5 gae/ha): 0%
- Visual Weed Control (%) - 22 DAA ECHCG Obs (ECHCG [3]; 17.5 gae/ha): 20%
- Visual Weed Control (%) Obs (ECHCG [3]; 20 DAA, 10.6 gae/ha): 20%
- Visual Weed Control (%) Obs (ECHCG [3]; 20 DAA, 21.2 gae/ha): 20%
- Visual Weed Control (%) Obs (ECHCG [3]; 20 DAA, 42.4 gae/ha): 50%
- Visual Weed Control (%) Obs (ECHCG [3]; 21 DAA, 10.6 gae/ha): 0%
- Visual Weed Control (%) Obs (ECHCG [3]; 22 DAA, 8.75 gae/ha): 0%
- Visual Weed Control (%) Obs (ECHCG [3]; 22 DAA, 17.5 gae/ha): 20%
- Visual Weed Control (%) Obs (ECHCG [3]; 22 DAA, 21.2 gae/ha): 25%
- Visual Weed Control (%) Obs (ECHCG [3]; 22 DAA, 35 gae/ha): 25%
- Visual Weed Control (%) Obs (ECHCG [3]; 22 DAA, 42.4 gae/ha): 30%
- Visual Weed Control (%) Obs (ECHCG [3]; 25 DAA, 8.75 gae/ha): 0%
- Visual Weed Control (%) Obs (ECHCG [3]; 25 DAA, 17.5 gae/ha): 0%
- Visual Weed Control (%) Obs (ECHCG [3]; 25 DAA, 35 gae/ha): 70%
- Visual Weed Control (%) - 21 DAA ECHCG Obs (ECHCG [3]; 35 gae/ha): 20%
- Visual Weed Control (%) - 22 DAA ECHCG Obs (ECHCG [3]; 35 gae/ha): 25%
- Visual Weed Control (%) - 21 DAA DIGSA Obs (DIGSA): 10%
- Visual Weed Control (%) - 20 DAA CYPIR Obs (CYPIR): 65%
- Visual Weed Control (%) - 20 DAA LEFCH Obs (LEFCH [4]; 4.38 gae/ha): 0%
- Visual Weed Control (%) - 20 DAA LEFCH Obs (LEFCH [4]; 5.3 gae/ha): 10%
- Visual Weed Control (%) - 20 DAA LEFCH Obs (LEFCH [4]; 8.75 gae/ha): 0%
- Visual Weed Control (%) - 20 DAA LEFCH Obs (LEFCH [4]; 17.5 gae/ha): 10%
- Visual Weed Control (%) - 19 DAA LEFCH Obs (LEFCH [4]; 19.4 gae/ha): 5%
